The values below come from US20170103183A1, “Model Generation for Drug Determination” (NORWEGIAN UNIVERSITY OF SCIENCE AND TECHNOLOGY, priority 2015, published 2017).

In the experiment the test system is AGS cells xenograft tumors. Nature of the experiment: Subcutaneous AGS xenograft tumors in Balb/c mice. It counts as in vivo. Conditions: single agent, low dose (PI103 5 mg/kg/d; (5Z)-7-oxozeaenol 3 mg/kg/d). On the procedure: To validate the beneficial response to one of the combination predicted and validated in cell line experiments the inventors generated subcutaneously injected xenograft tumors in Balb/c mice. 100 μl of 2×10^5 AGS cells were mixed with 100 μl of Matrigel and injected subcutaneously n the right flanks of 40 mice. Tumors were allowed to grow for 4 weeks, and mice with palpable tumors (n=30) were randomized to four groups: control, PI103 (5 mg/kg/d), (5Z)-7-oxozeaenol (3 mg/kg/d) and combination group which received both PI103 (5 mg/kg/d) and (5Z)-7oxozeaenol (3 mg/kg/d). Mice were injected with inhibitors or vehicle three times per week for a total of seven injections. Tumors were measured twice weekly using callipers and estimated volume from the formula V=0.5*d12*d2, where d1 is shortest diameter and d2 is longest diameter of tumor. Randomization was set up so that tumor volume was similar among groups at onset of treatment. […] Similar results were obtained for Mann-Whitney tests.

On to `COc1cc(O)c2c(c1)/C=C/C[C@H](O)[C@H](O)C(=O)/C=C\C[C@H](C)OC2=O` [(5Z)-7-oxozeaenol], for which the “activity of individual agent on tumor size compared to control” value is given as “non-significant”.
The result for `Oc1cccc(-c2nc(N3CCOCC3)c3oc4ncccc4c3n2)c1` [PI103] reads “non-significant”.
